Tests used:
[1] = molecular target: T1, cytosolic aconitase (Mus musculus, UniProt P28271); assay: In-gel aconitase assay in mouse embryonic fibroblast lysates, cytosolic aconitase; type: cell-based; settings: assessed 8 hours after removal; mouse embryonic fibroblasts treated 16 hours
T1 construct: Embryonic fibroblasts of 13-day old embryos were isolated from wild type, IRP1−/− mice and IRP2−/− mice; endogenous in cells; host or cells: mouse embryonic fibroblasts (wild type and IRP2−/−)
T1 sequence (P28271 1-889): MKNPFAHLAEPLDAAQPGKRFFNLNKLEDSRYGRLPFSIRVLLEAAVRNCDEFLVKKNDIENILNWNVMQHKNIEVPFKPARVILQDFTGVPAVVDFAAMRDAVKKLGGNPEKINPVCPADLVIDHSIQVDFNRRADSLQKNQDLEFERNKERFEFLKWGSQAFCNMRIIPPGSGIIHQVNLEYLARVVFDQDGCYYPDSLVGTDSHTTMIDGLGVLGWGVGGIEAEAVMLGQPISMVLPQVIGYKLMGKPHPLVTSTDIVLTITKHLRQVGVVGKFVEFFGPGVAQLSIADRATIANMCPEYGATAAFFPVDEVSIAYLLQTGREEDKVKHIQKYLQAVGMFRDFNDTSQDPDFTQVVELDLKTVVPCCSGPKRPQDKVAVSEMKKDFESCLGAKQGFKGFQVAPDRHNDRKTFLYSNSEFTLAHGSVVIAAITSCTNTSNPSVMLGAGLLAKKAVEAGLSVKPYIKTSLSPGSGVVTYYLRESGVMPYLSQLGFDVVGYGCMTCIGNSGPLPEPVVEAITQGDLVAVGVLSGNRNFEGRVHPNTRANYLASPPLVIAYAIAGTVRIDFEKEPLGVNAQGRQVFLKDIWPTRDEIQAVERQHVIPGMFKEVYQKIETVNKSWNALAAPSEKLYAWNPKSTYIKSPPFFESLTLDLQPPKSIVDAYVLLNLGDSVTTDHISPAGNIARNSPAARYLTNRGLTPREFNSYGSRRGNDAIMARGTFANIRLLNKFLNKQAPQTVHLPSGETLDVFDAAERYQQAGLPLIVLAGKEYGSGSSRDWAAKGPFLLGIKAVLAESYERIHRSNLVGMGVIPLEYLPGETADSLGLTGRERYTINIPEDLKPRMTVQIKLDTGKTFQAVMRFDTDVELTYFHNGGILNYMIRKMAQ
Method: (§1) Cells: Embryonic fibroblasts of 13-day old embryos were isolated from wild type, IRP1−/− mice and IRP2−/− mice as described in LaVaute et al. supra. Myc-tagged HEK 293 Tet-on cell line, in which IRP2 expression was inducible, was prepared and cultured as described Bourdon et al., Blood Cells Mol Dis, 31, 247-255 (2003). Erythroblasts were harvested from bone marrow and purified as described in Cooperman et al., Blood, 106, 1084-1091 (2005).
Aconitase assay: Aconitase activity gels for human lysates were performed as described in Tong et al., infra, and aconitase activity gels for mouse lysate were performed with the following modifications. The gel was composed of a separating gel containing 6% acrylamide, 132 mM Tris base, 66 mM borate, 3.6 mM citrate, and a stacking gel containing 4% acrylamide, 66 mM Tris base, 33 mM borate, 3.6 mM citrate. The running buffer contains 25 mM Tris pH 8.3, 96 mM glycine, and 3.6 mM citrate. Electrophoresis were carried out at 170 V at 4° C. Spectral aconitase activity was measured by following the method of Fillebeen et al., infra, using cis-aconitate as the substrate.
To confirm that nitroxide radicals activate IRP1 binding by disassembly of the iron-sulfur cluster, we performed in-gel aconitase assays to determine whether Tempo1 decreased the activity of cytosolic aconitase. […] The band that represented the cytosolic aconitase was readily identified by its absence in lysates from IRP1−/− cells. […]
(§2) To determine whether the effect of Tempo1 on IRP1 activity was kinetically consistent with oxidative disassembly of the iron sulfur cluster, the effect of Tempo1 on aconitase activity was compared to that of the iron chelator, deferiprone (DFO), which activates IRE-binding activity of IRP1 by limiting de novo synthesis and repair of the iron sulfur cluster in IRP1. […] Recovery of aconitase activity was assessed in wild type and IRP2−/− cells.

[2] = molecular target: T2, IRP1 (Mus musculus, UniProt P28271); assay: Gel-shift of IRP1 in wild type and IRP2−/− mouse embryonic fibroblasts after Tempo1 or DFO and washout; type: cell-based; parameters: Embryonic fibroblasts of 13-day old embryos were isolated from wild type, IRP1−/− mice and IRP2−/− mice; endogenous in cells; host or cells: mouse embryonic fibroblasts (wild type and IRP2−/−); settings: wild type and IRP2−/− mouse embryonic fibroblasts treated 16 hours
T2 sequence (P28271 1-889): T1 sequence (P28271 1-889)
Method: as §1
(§3) RNA mobility shift assays: Gel retardation assays were performed as described in Meyron-Holtz et al., EMBO J, 23, 386-395 (2004). Tissue lysates were prepared in an anaerobic chamber as described above in oxygen-depleted lysis buffer containing 10 mM HEPES (pH 7.2), 3 mM MgC12, 40 mM KCl, 5% glycerol, 0.2% Nonidet P-40, 5 mM DTT, 1 mM AEBSF, 10 μg/ml. Leupeptin and complete TM EDTA free protease inhibitor cocktail (Roche Applied Science, Indiana). Lysate (x μl) containing 10 μg of total protein was added to (12.5−x) μl of bandshift buffer containing 25 mM Tris-HCl (pH 7.5) and 40 mM KCl. The samples were incubated for 5 min at room temperature (RT) with 12.5 μl of a reaction cocktail containing 20% glycerol, 0.2 U/μl Super RNAsine (Ambion, Tex.), 0.6 μg/μl yeast t-RNA, 5 mM DTT and 20 nM 32P-labelled IRE from human ferritin H-chain gene in 25 mM Tris-HCl (pH 7.5) and 40 mM KCl. A measure of 20 μl of this reaction mixture was loaded into a 10% acrylamide/TBE gel, which was run at 200 V for 2.15 h, and then the gel was fixed, dried and exposed for autoradiography.
as §2

[3] = molecular target: T2, IRP1; assay: Gel-shift of brain lysates treated with β-mercaptoethanol; type: biochemical, mice; parameters: Lysates made from various brain regions of IRP2−/− mice; from tissue; host or cells: mouse brain (cerebellum, forebrain, brain-stem) lysates; settings: FIG. 7a
Method: Tissue and lysate preparation: Animals were euthanized and tissues were frozen in liquid nitrogen immediately after harvesting, and stored at −80° C. under argon. Experiments were performed on tissues that were pulverized in liquid N2-cooled mortars in an anaerobic chamber, and then lysed in lysis buffer that was deaerated by cyclic freezethaw and air-removal with argon. Nuclei and debris were removed by centrifugation. Preparations of lysates for assays of IRP1 activity, western blotting, carbonyl assay and protein analysis were performed anaerobically.
RNA mobility shift assays: Gel retardation assays were performed as described in Meyron-Holtz et al., EMBO J, 23, 386-395 (2004). Tissue lysates were prepared in an anaerobic chamber as described above in oxygen-depleted lysis buffer containing 10 mM HEPES (pH 7.2), 3 mM MgC12, 40 mM KCl, 5% glycerol, 0.2% Nonidet P-40, 5 mM DTT, 1 mM AEBSF, 10 μg/ml. Leupeptin and complete TM EDTA free protease inhibitor cocktail (Roche Applied Science, Indiana). Lysate (x μl) containing 10 μg of total protein was added to (12.5−x) μl of bandshift buffer containing 25 mM Tris-HCl (pH 7.5) and 40 mM KCl. […]

[4] = molecular target: T2, IRP1; assay: Gel-shift of erythroblasts treated with β-mercaptoethanol; type: biochemical; parameters: Lysates made from various brain regions of IRP2−/− mice; from tissue; host or cells: mouse brain (cerebellum, forebrain, brain-stem) lysates; settings: erythroblasts from wild type mice, high concentrations
Method: as §1
as §3, with “A measure of 20 μl of this reaction mixture was loaded into a 10% acrylamide/TBE gel, which was run at 200 V for 2.15 h, and then the gel was fixed, dried and exposed for autoradiography.” left out

Row | Structure (SMILES) | recovery of cytosolic aconitase activity [1] | IRE-binding activity of IRP1 [2] | IRE binding activity recruited [3] | additional IRE binding activity of IRP1 [4]
1 | Cc1c(O)c(=O)ccn1C [DFO, deferiprone, reference compound] | little recovery | activated |  | 
2 | OCCS [β-mercaptoethanol] |  |  | significant increases | did not activate additional
